Patent publication US9889184B2 (priority 2008, dated 2018)

What was measured:
Fov infection = conditions: transgenic cotton expressing NaD1 vs untransformed parent variety, field trials; cited from earlier work
[1] = system: Fusarium oxysporum f. sp. vasinfectum (Fov) hyphae; test: Permeabilisation of Fov hyphae by defensins, SYTOX green (Example 10); format: cell-based; conditions: within 60 mins; followed over 2 h
Description: Fov hyphae were grown in half-strength PDB (10 mL in a 50 mL tube) from a starting concentration of 5×10^4 spores/mL for 18 h at 25° C. with constant shaking. Samples (1 mL) were then removed and NaD1 (final concentration 2 μM), NaD1R&A (final concentration 2 μM) or an equivalent volume of water was added before incubation for 2 h at RT with gentle agitation. SYTOX® green (Invitrogen-Molecular Probes, Eugene, Oreg.) was added to a final concentration of 0.5 μM and the hyphae were allowed to stand for 10 min. Hyphae (20 μL) were then transferred to microscope slides (SuperFrost (Registered) Plus, Menzel-Glaser) and covered with glass coverslips for visualization of SYTOX® green uptake using an Olympus BX51 fluorescence microscope. SYTOX® green fluorescence was detected using an MWIB filter (excitation wavelength 460-490 nm). Images were captured using a SPOT RT 3CCD digital camera (Diagnostic Instruments) and processed using Adobe Photoshop. SYTOX® green uptake was quantitated by measuring fluorescence of hyphae in microtitre trays using a fluorimeter (SpectraMax M2; Molecular Devices) with excitation and emission wavelengths of 488 nm and 538 nm, respectively.
The ability of defensins to permeabilise Fusarium oxysporum f. sp. vasinfectum (Fov) hyphae was assessed using a SYTOX green assay as described in the detailed description (NaD1 and membrane permeabilisation).

Fov hyphae = test: Detection of reactive oxygen species (DHR123 oxidation); format: cell-based, Fusarium oxysporum f. sp. vasinfectum
Description: Fov hyphae were grown as described herein and incubated with 5 μg/mL dihydrorhodamine 123 (Sigma-Aldrich) for 2 h followed by extensive washing with growth medium. […] Fluorescence was then measured on a fluorimeter with excitation and emission wavelengths of 488 nm and 538 nm respectively or visualized by fluorescence microscopy. The experiment was repeated either in the presence of ascorbic acid (10 mM) or 2,2,6,6-tetramethylpiperidine-N-oxyl (TEMPO, 3 mM).

## NaD1: plant defensin isolated from floral tissue of Nicotiana alata (SEQ ID NO:12) (RECKTESNTFPGICITKPPCRKACISEKFTDGHCSKILRRCLCTKPC; Nicotiana alata (NaD1))
Fov infection
  protection from the pathological effects of Fov infection: significantly protected
[1]
  permeabilisation of Fov hyphae (SYTOX green): efficiently permeabilise
Fov hyphae; NaD1 0.1, 2 and 10 μM or 10 μM NaD1R&A
  ROS production, DHR123 fluorescence: concentration-dependent increase in fluorescence
Fov hyphae; ascorbic acid or TEMPO present
  DHR123 oxidation by NaD1 in the presence of ROS scavengers: did not alter the level of fluorescence
